Experimental data: patent US6852327B1, “Composition attracting insects pertaining to the coleoptera family and use thereof in the control of plagues in palm-trees and related plants” (Instituto Nacional de Investigacion y Tecnologia Agraria y …, priority 1998, dated 2005)

System: Rhynchophorus palmarum
Assay: Field trapping study of Rhynchophorus palmarum control in palm tree groves (baited traps, 1 month, French Guiana)
Assay type: in vivo
Settings: second (last) Total capture column; period not printed separately (study dates March-May 1997); total insects in all traps with the same test substance
Text: Study of Rhynchophorus palmarum Control in Palm Tree Groves
This experiment was designed to assess the control of Rhynchophorus palmarum control in ornamental, palm trees and in coconut palms according to the characteristics indicated hereunder.
Insect species against which the experiment was designed: Rhynchophorus palmarum, Coleoptera curculionidae, Rhynchophorinae.
Testing area: Cayenne—Remire Montjoly, French Guiana.
Plants: Ornamental palm tree groves and coconut palms.
Substances tested: • (a) Vegetal bait (sugar cane in 25 cm lengths cut lengthwise through the middle and fermented during 24 hours at 28° C., and Rhynchophorol (synthetic feromone) • (b) INIA 1 composition and Rhynchophorol. • (c) INIA 2 composition and Rhynchophorol. • (c) INIA 3 composition and Rhynchophorol. • (e) Reference specimen (only Rhynchophorol).
A randomly selected “double blind” test was repeated 4 times in traps installed over trash cans modified to include spreaders comprising a supporting agent capable of absorbing/adsorbing and releasing the compositions to be tested and designed to emit said compositions.
The vegetal bait, namely cut-up cane, was arranged in a bundle on the bottom of the trap can. Feromone (Rhynchophorol) was released from small hermetic plastic 200 μm envelopes loaded with 0.2 cm^3 of synthetic feromone spreading a minimum of 2 mg/day through pores in the trap. […]

## C/C=C/C(O)CC(C)C (stereo not shown) [(e), Rhynchophorol]
  Total capture: 3
